Measured values taken from patent US20230339890A1, “AMINO ALCOHOL COMPOUNDS AND USES THEREOF” (Kineta, Inc., priority 2020, published 2023).

The molecules below were run against Recombinant human CYP51A1 (lanosterol-14a-demethylase) (Homo sapiens (Human), UniProt Q16850) (assay: Inhibition of CYP51A1, fluorescent substrate BOMCC). Details: recombinant human CYP51A1 coexpressed with CYP reductase in bacterial membranes, 8-point concentration-response, read-out: CYP51 IC50.
Assay type: biochemical
Source text: Method: Recombinant human CYP51A1 (lanosterol-14a-demethylase) enzyme was coexpressed with CYP reductase in bacterial membranes and the fluorescent substrate BOMCC (a nonnatural substrate that causes increases in fluorescence upon CYP51A1-dependent demethylation) was used to obtain 8-point dose concentration-response curves for each compound.

Sequence of Recombinant human CYP51A1 (lanosterol-14a-demethylase) (Q16850 whole entry): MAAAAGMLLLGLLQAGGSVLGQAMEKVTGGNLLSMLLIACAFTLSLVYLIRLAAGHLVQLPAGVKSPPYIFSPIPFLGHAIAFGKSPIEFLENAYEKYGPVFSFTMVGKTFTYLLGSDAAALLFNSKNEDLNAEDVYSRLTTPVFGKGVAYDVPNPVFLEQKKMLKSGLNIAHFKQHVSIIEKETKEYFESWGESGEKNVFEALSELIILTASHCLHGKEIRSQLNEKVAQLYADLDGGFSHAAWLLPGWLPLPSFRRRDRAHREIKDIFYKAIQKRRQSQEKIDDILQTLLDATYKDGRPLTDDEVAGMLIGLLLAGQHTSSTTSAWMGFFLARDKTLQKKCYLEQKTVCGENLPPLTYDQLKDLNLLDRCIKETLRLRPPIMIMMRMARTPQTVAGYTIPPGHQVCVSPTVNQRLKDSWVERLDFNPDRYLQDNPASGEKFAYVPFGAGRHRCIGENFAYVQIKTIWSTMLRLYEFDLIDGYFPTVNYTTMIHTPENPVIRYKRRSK

Row | Structure (SMILES) | IC50 [nM]
1 | CCCN(CC(O)c1cccnn1)C(=O)Cc1ccc(C(F)(F)F)nc1 (stereo not drawn) [compound 32, N-(2-hydroxy-2-pyridazin-3-yl-ethyl)-N-propyl-2-[6-(trifluoromethyl)-3-pyridyl]acetamide] | 100 to 1000
2 | NCCCCCN(CC(O)c1cccnc1)C(=O)Cc1ccc(Cl)c(Cl)c1 (stereo not drawn) [compound 33, N-(5-aminopentyl)-2-(3,4-dichlorophenyl)-N-[2-hydroxy-2-(3-pyridyl)ethyl]acet amide] | > 1000
3 | CCC(=O)N(CC1Cc2cc(Cl)c(Cl)cc2C1)C[C@@H](O)c1cccnc1 [compound 34, N-[(5,6-dichloroindan-2-yl)methyl]-N-[(2S)-2-hydroxy-2-(3-pyridyl)ethyl]propanamide] | 100 to 1000
4 | CCCN(CC(O)c1cncc(Cl)c1)C(=O)Cc1ccc(Cl)c(Cl)c1 (stereo not drawn) [compound 37, N-[2-(5-chloro-3-pyridyl)-2-hydroxy-ethyl]-2-(3,4-dichlorophenyl)-N-propyl-acetamide] | > 1000
5 | CCCN(C[C@@H](O)c1cccnc1)C(=O)Cc1ccc(C(F)(F)F)nn1 [compound 38, N-[(2S)-2-hydroxy-2-(3-pyridyl)ethyl]-N-propyl-2-[6-(trifluoromethyl)pyridazin-3-yl]acetamide] | 100 to 1000
6 | CCCN(C[C@@H](O)c1cccnc1)C(=O)Cc1ccc(C#N)nc1 [compound 39, 2-(6-cyano-3-pyridyl)-N-[(2S)-2-hydroxy-2-(3-pyridyl)ethyl]-N-propyl-acetamide] | > 1000
7 | CCCN(C[C@@H](O)c1cccnc1)C(=O)Cc1ccc2ncsc2c1 [compound 40, 2-(1,3-benzothiazol-6-yl)-N-[(2S)-2-hydroxy-2-(3-pyridyl)ethyl]-N-propyl-acetamide] | 100 to 1000
8 | CC(C)(O)CN(CC(O)c1cccnc1)C(=O)Cc1ccc(Cl)c(Cl)c1 (stereo not drawn) [compound 43, 2-(3,4-dichlorophenyl)-N-(2-hydroxy-2-methylpropyl)-N-[2-hydroxy-2-(3-pyridyl)ethyl]acetamide] | > 1000
9 | CCCN(C[C@@H](O)c1cccnc1)C(=O)Cc1cncc(Cl)c1 [compound 44, 2-(5-chloro-3-pyridyl)-N-[(2S)-2-hydroxy-2-(3-pyridyl)ethyl]-N-propyl-acetamide] | > 1000
10 | CCCN(C[C@@H](O)c1cccnc1)C(=O)Cc1ccc(OC(F)(F)F)cn1 [compound 45, N-[(2S)-2-hydroxy-2-(3-pyridyl)ethyl]-N-propyl-2-[5-(trifluoromethoxy)-2-pyridyl]acetamide] | ≤ 100
11 | CCCN(CC(O)c1cncc(Br)c1)C(=O)Cc1ccc(C(F)(F)F)nc1 (stereo not drawn) [compound 46, N-[2-(5-bromo-3-pyridyl)-2-hydroxyethyl]-N-propyl-2-[6-(trifluoromethyl)-3-pyridyl]acetamide] | > 1000
12 | CCCN(C[C@@H](O)c1cccnc1)C(=O)Cc1ccc2scnc2c1 [compound 47, 2-(1,3-benzothiazol-5-yl)-N-[(2S)-2-hydroxy-2-(3-pyridyl)ethyl]-N-propyl-acetamide] | 100 to 1000
13 | CCCN(CC(O)c1cncc(C(C)=O)c1)C(=O)Cc1ccc(C(F)(F)F)nc1 (stereo not drawn) [compound 48, N-[2-(5-acetyl-3-pyridyl)-2-hydroxy-ethyl]-N-propyl-2-[6-(trifluoromethyl)-3-pyridyl]acetamide] | > 1000
14 | CCC(=O)N(CCc1ccc(C(F)(F)F)nc1)CC(O)c1cccnn1 (stereo not drawn) [compound 49] | > 1000
15 | CCCN(C[C@@H](O)c1cccnc1)C(=O)Cc1ccc(C(F)F)c(F)c1 [compound 50, 2-[4-(difluoromethyl)-3-fluoro-phenyl]-N-[(2S)-2-hydroxy-2-(3-pyridyl)ethyl]-N-propyl-acetamide] | ≤ 100
16 | COC(=O)N(CCc1ccc(C(F)(F)F)nc1)CC(O)c1cccnn1 (stereo not drawn) [compound 51] | > 1000
17 | CCCN(CC(O)c1cccnn1)C(=O)Cc1ccc(C#N)c(Cl)c1 (stereo not drawn) [compound 52, 2-(3-chloro-4-cyanophenyl)-N-(2-hydroxy-2-pyridazin-3-yl-ethyl)-N-propyl-acetamide] | 100 to 1000
18 | CCCN(CC(O)c1cncc(C(C)(C)O)c1)C(=O)Cc1ccc(C(F)(F)F)nc1 (stereo not drawn) [compound 55, N-[2-hydroxy-2-[5-(1-hydroxy-1-methyl-ethyl)-3-pyridyl]ethyl]-N-propyl-2-[6-(trifluoromethyl)-3-pyridyl]acetamide] | > 1000
19 | CC(=O)N1CCC(CN(C[C@@H](O)c2cccnc2)C(=O)Cc2ccc(C(F)(F)F)nc2)CC1 [compound 57, N-[(1-acetyl-4-piperidyl)methyl]-N-[(2S)-2-hydroxy-2-(3-pyridyl)ethyl]-2-[6-(trifluoromethyl)-3-pyridyl]acetamide] | > 1000
20 | CN1CCC(CN(C[C@@H](O)c2cccnc2)C(=O)Cc2ccc(C(F)(F)F)nc2)CC1 [compound 58, N-[(2S)-2-hydroxy-2-(3-pyridyl)ethyl]-N-[(1-methyl-4-piperidyl)methyl]-2-[6-(trifluoromethyl)-3-pyridyl]acetamide] | > 1000

Row | Structure (SMILES) | IC50 [nM]
21 | CCCN(C[C@@H](O)c1cccnc1)C(=O)Cc1cncc(C(F)(F)F)c1 [compound 59, N-[(2S)-2-hydroxy-2-(3-pyridyl)ethyl]-N-propyl-2-[5-(trifluoromethyl)-3-pyridyl]acetamide] | > 1000
22 | O=C(Cc1ccc(C(F)(F)F)nc1)N(CC(O)c1cccnn1)C1CCC1 (stereo not drawn) [compound 60, N-cyclobutyl-N-(2-hydroxy-2-pyridazin-3-yl-ethyl)-2-[6-(trifluoromethyl)-3-pyridyl]acetamide] | 100 to 1000
23 | CCCN(CC(O)c1cccnc1)C(=O)Cc1ccc(Cl)c(C)n1 (stereo not drawn) [compound 63, 2-(5-chloro-6-methyl-2-pyridyl)-N-[2-hydroxy-2-(3-pyridyl)ethyl]-N-propyl-acetamide] | > 1000
24 | O=C(Cc1ccc(C(F)(F)F)nc1)N(Cc1ccccc1)C[C@@H](O)c1cccnc1 [compound 64, (S)-N-benzyl-N-(2-hydroxy-2-(pyridin-3-yl)ethyl)-2-(6-(trifluoromethyl)pyridin-3-yl)acetamide] | ≤ 100
25 | O=C(Cc1ccc(F)c(Cl)c1)N(CC1COC1)C[C@@H](O)c1cccnc1 [compound 65, 2-(3-chloro-4-fluoro-phenyl)-N-[(2S)-2-hydroxy-2-(3-pyridyl)ethyl]-N-(oxetan-3-ylmethyl)acetamide] | > 1000
26 | O=C(Cc1ccc(OC(F)(F)F)cn1)N(CC1COC1)C[C@@H](O)c1cccnc1 [compound 66, N-[(2S)-2-hydroxy-2-(3-pyridyl)ethyl]-N-(oxetan-3-ylmethyl)-2-[5-(trifluoromethoxy)-2-pyridyl]acetamide] | 100 to 1000
27 | CCCN(C[C@@H](O)c1cccnc1)C(=O)Cc1ccc2cc(Cl)sc2c1 [compound 67, 2-(2-chlorobenzothiophen-6-yl)-N-[(2S)-2-hydroxy-2-(3-pyridyl)ethyl]-N-propyl-acetamide] | ≤ 100
28 | O=C(Cc1ccc(Cl)c(Cl)c1)N(C[C@@H](O)c1cccnc1)C1CCC1 [compound 71, N-cyclobutyl-2-(3,4-dichlorophenyl)-N-[(2S)-2-hydroxy-2-(3-pyridyl)ethyl]acetamide] | ≤ 100
29 | CC(C)N(C[C@@H](O)c1cccnc1)C(=O)Cc1ccc(C(F)(F)F)nc1 [compound 72, (S)-N-(2-hydroxy-2-(pyridin-3-yl)ethyl)-N-isopropyl-2-(6-(trifluoromethyl)pyridin-3-yl)acetamide] | 100 to 1000
30 | O=C(Cc1ccc(C(F)(F)F)nc1)N(CC1COC1)C[C@@H](O)c1cccnc1 [compound 73, N-[(2S)-2-hydroxy-2-(3-pyridyl)ethyl]-N-(oxetan-3-ylmethyl)-2-[6-(trifluoromethyl)-3-pyridyl]acetamide] | 100 to 1000
31 | O=C(Cc1ccc(C(F)(F)F)nc1)N(C[C@@H](O)c1cccnc1)C1CCC1 [compound 74, N-cyclobutyl-N-[(2S)-2-hydroxy-2-(3-pyridyl)ethyl]-2-[6-(trifluoromethyl)-3-pyridyl]acetamide] | ≤ 100
32 | COC(=O)N(CCc1ccc(C(F)(F)F)nc1)C[C@@H](O)c1cccnc1 [compound 75, Methyl N-[(2S)-2-hydroxy-2-(3-pyridyl)ethyl]-N-[2-[6-(trifluoromethyl)-3-pyridyl]ethyl]carba mate] | > 1000
33 | CC1(CN(C[C@@H](O)c2cccnc2)C(=O)Cc2ccc(C(F)(F)F)nc2)CC1 [compound 76, N-[(2S)-2-hydroxy-2-(3-pyridyl)ethyl]-N-[(1-methylcyclopropyl)methyl]-2-[6-(trifluoromethyl)-3-pyridyl]acetamide] | ≤ 100
34 | N#Cc1ccc(CC(=O)N(C[C@@H](O)c2cccnc2)C2CCC2)cc1Cl [compound 77, 2-(3-chloro-4-cyano-phenyl)-N-cyclobutyl-N-[(2S)-2-hydroxy-2-(3-pyridyl)ethyl]acetamide] | ≤ 100
35 | O=C(Cc1ccc(C(F)(F)F)nc1)N(C[C@@H](O)c1cccnc1)C1COC1 [compound 78, N-[(2S)-2-hydroxy-2-(3-pyridyl)ethyl]-N-(oxetan-3-yl)-2-[6-(trifluoromethyl)-3-pyridyl]acetamide] | 100 to 1000
36 | O=C(Cc1ccc(C(F)(F)F)nc1)N(CC1CCOCC1)C[C@@H](O)c1cccnc1 [compound 79, N-[(2S)-2-hydroxy-2-(3-pyridyl)ethyl]-N-(tetrahydropyran-4-ylmethyl)-2-[6-(trifluoromethyl)-3-pyridyl]acetamide] | > 1000
37 | N#Cc1ccc(CC(=O)N(CC2COC2)C[C@@H](O)c2cccnc2)cc1Cl [compound 80, 2-(3-chloro-4-cyano-phenyl)-N-[(2S)-2-hydroxy-2-(3-pyridyl)ethyl]-N-(oxetan-3-ylmethyl)acetamide] | 100 to 1000
38 | O=C(Cc1ccc(C(F)(F)F)nc1)N(CC1CCNCC1)C[C@@H](O)c1cccnc1 [compound 81, N-[(2S)-2-hydroxy-2-(3-pyridyl)ethyl]-N-(4-piperidylmethyl)-2-[6-(trifluoromethyl)-3-pyridyl]acetamide] | > 1000
39 | COC(=O)N(CCc1ccc2ccccc2c1)CC(O)c1cccnc1 (stereo not drawn) [compound 82, Methyl N-[2-hydroxy-2-(3-pyridyl)ethyl]-N-[2-(2-naphthyl)ethyl]carba mate] | 100 to 1000
